Reference: PubChem BioAssay AID248 (DTP/NCI, 2004)
Values joined by “and” are separate entries in the source; they are usually repeats but may differ in a detail not shown here. Equal values may be shown once. Toxic doses and inconclusive results are not listed. Cut-off read from the data, not from the text of the source: active = T/C of 150% or more; inactive = T/C below 125%.

Test system: L1210 leukemia ip in BDF1 mice, survival T/C
Experiment: NCI In Vivo Anticancer Drug Screen. Data for tumor model L1210 Leukemia (intraperitoneal) in B6D2F1 (BDF1) mice
Details: endpoint: mean survival time, higher = longer survival
Summary of the method: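 In this screen, tumor-bearing mice given compound are compared to those given vehicle, and their survival values are reported as a treated-to-control quotient.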

[1] = dose: 50.0 mg/kg/injection, schedule: Q01DX009 (ip), vehicle: Klucel (hydroxypropylcellulose) (HPC)
[2] = dose: 100.0 mg/kg/injection, schedule: Q01DX009 (ip), vehicle: Klucel (hydroxypropylcellulose) (HPC)
[3] = dose: 200.0 mg/kg/injection, schedule: Q01DX009 (ip), vehicle: Klucel (hydroxypropylcellulose) (HPC)
[4] = dose: 100.0 mg/kg/injection, schedule: Q01DX001 (ip), vehicle: carboxymethylcellulose (CMC)
[5] = dose: 200.0 mg/kg/injection, schedule: Q01DX001 (ip), vehicle: carboxymethylcellulose (CMC)
[6] = dose: 200.0 mg/kg/injection, schedule: Q04DX003 (ip), vehicle: saline with Tween-80
[7] = dose: 400.0 mg/kg/injection, schedule: Q01DX009 (ip), vehicle: Klucel (hydroxypropylcellulose) (HPC)
[8] = dose: 100.0 mg/kg/injection, schedule: Q04DX003 (ip), vehicle: Klucel (hydroxypropylcellulose) (HPC)
[9] = dose: 200.0 mg/kg/injection, schedule: Q04DX003 (ip), vehicle: Klucel (hydroxypropylcellulose) (HPC)

Measured: T/C

CC/C(=C(\CC)c1ccc(OCC(=O)OCCNCCCl)cc1)c1ccc(OCC(=O)OCCNCCCl)cc1
inactive: dose: 6.25 mg/kg/injection, schedule: Q04DX002 (ip), vehicle: saline 94 % of control | dose: 12.5 mg/kg/injection, schedule: Q04DX002 (ip), vehicle: saline 97 % of control | dose: 25.0 mg/kg/injection, schedule: Q04DX002 (ip), vehicle: saline 94 % of control

N#C/C(=C\c1cccc2ccccc12)c1ccc(Cl)cc1
inactive: dose: 87.5 mg/kg/injection, schedule: Q01DX009 (ip), vehicle: Klucel (hydroxypropylcellulose) (HPC) 95 % of control | dose: 175.0 mg/kg/injection, schedule: Q01DX009 (ip), vehicle: Klucel (hydroxypropylcellulose) (HPC) 96 % of control | dose: 350.0 mg/kg/injection, schedule: Q01DX009 (ip), vehicle: Klucel (hydroxypropylcellulose) (HPC) 97 % of control

CCOC(=O)CC(C(=O)OCC)c1nc2ccccc2[nH]c1=O (stereo unspecified)
inactive: [1] 93 % of control and 113 % of control | [2] 101 % of control and 90 % of control | [3] 93 % of control and 103 % of control

Cc1c2c(cc3c1sc1ccccc13)CCCC2=O
inactive: dose: 100.0 mg/kg/injection, schedule: Q01DX001 (ip), vehicle: saline 101 % of control | dose: 200.0 mg/kg/injection, schedule: Q01DX001 (ip), vehicle: saline 94 % of control | dose: 400.0 mg/kg/injection, schedule: Q01DX001 (ip), vehicle: saline 101 % of control

Oc1ccc(Br)cc1C=Nc1cnc2ccccc2c1
inactive: [4] 90 % of control | [5] 90 % of control

CCCCCCCCCCCCCCCCC
inactive: dose: 100.0 mg/kg/injection, schedule: Q01DX001 (ip), vehicle: saline with Tween-80 113 % of control | dose: 200.0 mg/kg/injection, schedule: Q01DX001 (ip), vehicle: saline with Tween-80 108 % of control | dose: 400.0 mg/kg/injection, schedule: Q01DX001 (ip), vehicle: saline with Tween-80 97 % of control

Cc1nc2c(NC(=O)C(F)(F)F)nn(C)c2nc1C
inactive: dose: 100.0 mg/kg/injection, schedule: Q01DX009 (ip), vehicle: saline with Tween-80 94 % of control | dose: 100.0 mg/kg/injection, schedule: Q04DX003 (ip), vehicle: saline with Tween-80 100 % of control | dose: 200.0 mg/kg/injection, schedule: Q01DX009 (ip), vehicle: saline with Tween-80 92 % of control | [6] 100 % of control | dose: 400.0 mg/kg/injection, schedule: Q04DX003 (ip), vehicle: saline with Tween-80 106 % of control

CN(C)c1ccc(/C=N/NC(=O)c2ccccc2NC(=O)C2CC2)cc1
inactive: [2] 93 % of control | [3] 104 % of control | [7] 90 % of control

CS(=O)(=O)O/C=C(\C#N)C(=O)O
inactive: [4] 103 % of control | [5] 106 % of control

c1ccc2c(c1)Sc1ccccc1N2C[C@H]1CCCN2CCCC[C@H]12
inactive: dose: 75.0 mg/kg/injection, schedule: Q01DX009 (ip), vehicle: Klucel (hydroxypropylcellulose) (HPC) 102 % of control | dose: 75.0 mg/kg/injection, schedule: Q04DX003 (ip), vehicle: Klucel (hydroxypropylcellulose) (HPC) 102 % of control | dose: 150.0 mg/kg/injection, schedule: Q01DX009 (ip), vehicle: Klucel (hydroxypropylcellulose) (HPC) 91 % of control | dose: 150.0 mg/kg/injection, schedule: Q04DX003 (ip), vehicle: Klucel (hydroxypropylcellulose) (HPC) 97 % of control | dose: 300.0 mg/kg/injection, schedule: Q01DX009 (ip), vehicle: Klucel (hydroxypropylcellulose) (HPC) 89 % of control | dose: 300.0 mg/kg/injection, schedule: Q04DX003 (ip), vehicle: Klucel (hydroxypropylcellulose) (HPC) 102 % of control

CCSc1ncnc2c1ncn2C1OC(CO)C(O)C1O (stereo unspecified)
inactive: dose: 132.0 mg/kg/injection, schedule: Q04DX003 (ip), vehicle: saline with Tween-80 116 % of control | [6] 124 % of control

O=S(=O)(NS(=O)(=O)c1ccc(Cl)cc1)c1ccc(Cl)cc1
inactive: [1] 93 % of control | [2] 96 % of control | [8] 88 % of control | [3] 104 % of control | [9] 87 % of control

CC(C)(O)C(=O)NCNC(=O)C(C)(C)O
inactive: [2] 102 % of control | [8] 103 % of control | [3] 97 % of control | [9] 103 % of control | [7] 97 % of control | dose: 400.0 mg/kg/injection, schedule: Q04DX003 (ip), vehicle: Klucel (hydroxypropylcellulose) (HPC) 106 % of control
